These results are taken from paper PMC10675174, “Design, Synthesis, and Repurposing of Rosmarinic Acid-β-Amino-α-Ketoamide Hybrids as Antileishmanial Agents” (Pharmaceuticals, 2023).

In general, inhibition refers to the change of the read-out against control, counted positive when it falls. In general, IC50 refers to the concentration that gives 50% inhibition. In general, CC50 refers to the concentration that lowers cell viability or growth by half. A higher CC50 goes with lower toxicity to the cells.

Data set [1] concerns promastigotes of L. infantum. The settings on record: cited from earlier work.
Data set [2] has as its system L. donovani promastigotes. As to the kind of experiment: In vitro L. donovani promastigotes growth inhibition (resazurin-based assay). The following applies: Leishmania donovani, 72 h; for inhibition at 25 µM / inhibition at 50 µM: growth of L. donovani promastigotes, incubation 3 days, relative to control; for IC50: incubation for 3 days, from dose-response curves, read-out: IC50 against L. donovani promastigotes. Type of data set: cell-based. The protocol: Using an in vitro promastigotes-based model, the activity of the synthesized target compounds 2a–i was assessed against the promastigote stage of L. donovani. A double-concentration assay was performed for each compound at 50 and 25 µM concentrations adopting a resazurin-based assay system. Erufosine was used as a positive reference standard drug.
Among the evaluated compounds, seven derivatives maintained a high inhibitory activity at 25 and 50 μM concentrations which was similar to erufosine. Therefore, they were advanced to assessment of potency to evaluate their quality as antileishmanial hit compounds. […] Erufosine was used as positive controls for comparison.
(§1) 2.1. In vitro L. donovani promastigotes-based evaluation model
(§2) 2.1.1. Cell culture of parasite
(§3) L. donovani MHOM/SD/62/1S-CL2D parasites (Department of PIV, Institut Pasteur, Paris,
(§4) France) were cultured as promastigotes at 28 °C in M199 medium (Sigma-Aldrich, St. Louis, MO,
(§5) USA) with 40 mM HEPES, 0.1 mM adenine, 0.0001% biotin, and 4.62 mM NaHCO3
(§6) supplemented with 10% foetal bovine serum (FBS, Gibco, Carlsbad, CA, USA), […]
(§7) penicillin (Gibco), and […] streptomycin (Gibco). Parasites were sub-cultured every 3 or
(§8) 4 days and maintained for 10 passages.
(§9) 2.1.2 Assay of parasite growth inhibition
(§10) The values of growth inhibition of L. donovani promastigotes were determined based on the
(§11) metabolism of resazurin to resorufin by aerobic respiration of metabolically active cells using 384-
(§12) well plates that were seeded with L. donovani promastigotes (5x10^4 cells per well) and incubated
(§13) with tested compounds for 3 days followed by addition of Resazurin sodium salt (200 µM; R7017;
(§14) Sigma-Aldrich, St. Louis, MO, USA) and further incubation for 5 h then the cells were fixed (4%
paraformaldehyde). The plates were analysed using a Victor3TM plate reader (PerkinElmer, Inc.,
Waltham, MA, USA) at 590 nm (emission) and 530 nm (excitation). Miltefosine and erufosine
were used as the reference standards. All measured and calculated values are the averages of
triplicates. The dose-response curves were generated by GraphPad Prism 6 software using a
sigmoidal dose-response equation with a variable hill slope option. […]
Background: Resazurin is reduced to fluorescent resorufin, in cell work by metabolically active cells.

A short description of data set [3]: In vitro safety evaluation: cytotoxicity on THP-1 cells. Type of data set: cell-based. The settings on record: human, PMA-treated THP-1 monocytic cells, THP-1 human monocytic cell line. Here is the method: As for the considerable toxicities of current antileishmanial therapies, a promising drug candidate should be selective eliciting no potential cytotoxicity towards human cells. […] The newly introduced hit compound needs to be safe and non-toxic to human cells. A comparison with the standard drug erufosine was performed. […] In light of these findings, it might be inferred that both cinnamoyl ketoamide hybrids 2g and 2h could be selective antileishmanial hit compounds for future development.
as §1, §2, §3, §4, §5, §6, §7, §8, §9, §10, §11, §12, §13, §14
paraformaldehyde). The plates were analysed using a Victor3TM plate reader (PerkinElmer, Inc., […]
were used as the reference standards. All measured and calculated values are the averages of […]
The images were acquired based on reading using an Operetta® automated microscope
(PerkinElmer, Inc., Waltham, MA 02451, USA). They were further analysed using ColumbusTM
(PerkinElmer, Inc. Waltham, MA, USA) software to quantify parasite numbers, and host cell
numbers. In brief, large-sized nucleus of host cells was first detected using DAPI signal and the […]

For data set [4], the system named is promastigotes of L. amazonensis. The following applies: read-out: IC50 against promastigotes of L. amazonensis; cited from earlier work.

For `O=C(/C=C/c1ccc(O)c(O)c1)OCCc1ccccc1` [CAPE, caffeic acid phenethyl ester], the “IC50 against promastigotes of L. infantum” value in data set [1] is 51.0 µg/mL.

In the case of `O=C(C=Cc1ccc(O)c(O)c1)NC(Cc1ccccc1)C(=O)C(=O)NCc1ccccc1` (centres unmarked) [Compound 2a], in data set [2], the inhibition at 25 µM came out at 97.8 ± 1%, the inhibition at 50 µM came out at 103 ± 0.4% and the IC50 is greater than 100 µM.

Regarding `COc1ccc(CCNC(=O)C(=O)C(Cc2ccccc2)NC(=O)C=Cc2ccc(O)c(O)c2)cc1` (centres unmarked) [Compound 2b], in data set [2], the inhibition at 25 µM turned out to be 44 ± 1.2% and the inhibition at 50 µM came out at 72.83 ± 0.4%.

`CCC(=Cc1ccc(O)c(O)c1)C(=O)NC(Cc1ccccc1)C(=O)C(=O)NCc1ccccc1` (centres unmarked) [Compound 2c]: in data set [2], the inhibition at 25 µM was found to be 104 ± 0.3%, the inhibition at 50 µM is 101 ± 0.2% and the IC50 worked out at 87.3 ± 1.2 µM.

With `CCCC(=Cc1ccc(O)c(O)c1)C(=O)NC(Cc1ccccc1)C(=O)C(=O)NCc1ccccc1` (centres unmarked) [Compound 2d], in data set [2], the inhibition at 25 µM was 107 ± 0.4%, the inhibition at 50 µM was determined as 102 ± 0.1% and the IC50 turned out to be 45.2 ± 0.9 µM.

Take `CCCC(=Cc1ccc(O)c(O)c1)C(=O)NC(Cc1ccccc1)C(=O)C(=O)NCCc1ccc(OC)cc1` (centres unmarked) [Compound 2e]: in data set [2], the inhibition at 25 µM stood at 104 ± 0.2%, the inhibition at 50 µM was determined as 104 ± 0.1% and the IC50 is 37.6 ± 2.1 µM.

`CCCCC(=Cc1ccc(O)c(O)c1)C(=O)NC(Cc1ccccc1)C(=O)C(=O)NCc1ccccc1` (centres unmarked) [Compound 2f]: in data set [2], the inhibition at 25 µM is 104 ± 0.4%, the inhibition at 50 µM is 100 ± 0.3% and the IC50 turned out to be 26.9 ± 1.4 µM.

As for `CCCCC(=Cc1ccc(O)c(O)c1)C(=O)NC(Cc1ccccc1)C(=O)C(=O)NCCc1ccc(OC)cc1` (centres unmarked) [Compound 2g], in data set [2], the inhibition at 25 µM is 107 ± 0.1%, the inhibition at 50 µM came to 103 ± 0.1% and the IC50 was determined as 9.5 ± 0.6 µM. In data set [3], this molecule yielded a CC50 at 72 h greater than 100 µM.

Take `CCCCC(=Cc1ccc(O)c(OC)c1)C(=O)NC(Cc1ccccc1)C(=O)C(=O)NCCc1ccc(OC)cc1` (centres unmarked) [Compound 2h]: in data set [2], the inhibition at 25 µM came out at 103 ± 0.2%, the inhibition at 50 µM came out at 100 ± 0.3% and the IC50 amounted to 8.8 ± 0.4 µM. Further, the CC50 at 72 h in data set [3] is greater than 100 µM.

Take `CCCCC(=Cc1ccc(OC)c(OC)c1)C(=O)NC(Cc1ccccc1)C(=O)C(=O)NCCc1ccc(OC)cc1` (centres unmarked) [Compound 2i]: in data set [2], the inhibition at 25 µM was 79.8 ± 1.8% and the inhibition at 50 µM was 94.2 ± 1.2%.

`CCCCCCCC/C=C\CCCCCCCCCCCCOP(=O)([O-])OCC[N+](C)(C)C` [Erufosine, reference compound]: in data set [2], the inhibition at 25 µM is 100 ± 1%, the inhibition at 50 µM is 107.6 ± 0.3% and the IC50 is 9.8 ± 0.7 µM. Moreover, in data set [3], the CC50 at 72 h is 19.4 µM.

With `O=C(/C=C/c1ccc(O)c(O)c1)O[C@H](Cc1ccc(O)c(O)c1)C(=O)O` [Rosmarinic acid], the IC50 in data set [4] is 61 µM; in data set [1] (read-out: IC50 against promastigotes of L. infantum), 57.3 µM.

Consider `O=C(/C=C/c1ccc(O)c(O)c1)O[C@@H]1C[C@](O)(C(=O)O)C[C@@H](O)[C@H]1O` [chlorogenic, chlorogenic acid], for which, in data set [4], the IC50 is greater than 500 µM.
